Laboratory results as given in ChEMBL document CHEMBL3352749, “An iridoid glucoside and the related aglycones from Cornus florida” (J Nat Prod, 2014).
Active and inactive are the calls of the source.

How the values were obtained:
MDA-MB-231 = test: Growth inhibition of human MDA-MB-231 cells up to 100 uM; type: functional, cell-based
BG02 = test: Growth inhibition of human BG02 cells up to 100 uM; type: functional, cell-based
MCF7 = test: Growth inhibition of human MCF7 cells up to 100 uM; type: functional, cell-based
[1] = target: T1, Peroxisome proliferator-activated receptor gamma (Homo sapiens) (UniProt P37231); test: Agonist activity at PPARgamma (unknown origin)
T1 sequence (whole entry): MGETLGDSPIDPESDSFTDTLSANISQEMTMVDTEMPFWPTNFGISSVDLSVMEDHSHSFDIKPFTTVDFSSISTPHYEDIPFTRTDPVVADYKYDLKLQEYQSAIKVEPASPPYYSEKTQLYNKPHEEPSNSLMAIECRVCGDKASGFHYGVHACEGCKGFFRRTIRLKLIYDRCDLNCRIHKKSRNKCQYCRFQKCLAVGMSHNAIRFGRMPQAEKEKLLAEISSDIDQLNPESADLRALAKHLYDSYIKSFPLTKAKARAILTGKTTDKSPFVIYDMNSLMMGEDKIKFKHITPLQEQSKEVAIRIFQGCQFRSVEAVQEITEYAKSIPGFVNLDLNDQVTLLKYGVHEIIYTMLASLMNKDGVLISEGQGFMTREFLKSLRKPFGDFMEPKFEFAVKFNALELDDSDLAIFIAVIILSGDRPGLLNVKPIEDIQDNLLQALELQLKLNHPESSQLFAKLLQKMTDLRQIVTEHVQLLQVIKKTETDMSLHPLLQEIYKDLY

Measured: Activity

COC(=O)[C@H]1C(=O)O[C@H]2C[C@H](C)[C@@H](CO[C@@H]3O[C@H](CO)[C@@H](O)[C@H](O)[C@H]3O)[C@@H]12
inactive: MDA-MB-231 | BG02 | MCF7

COC(=O)[C@@H]1C(=O)OC[C@H]2[C@@H]1[C@H](O)C[C@@H]2C
inactive: MDA-MB-231 | [1] | BG02 | MCF7

C[C@H]1C[C@@H]2OC(=O)C[C@@H]2[C@@H]1CO
inactive: MDA-MB-231 | [1] | BG02 | MCF7

C[C@H]1C[C@@H]2OC(=O)[C@@H]3C(=O)OC[C@H]1[C@@H]32
inactive: MDA-MB-231 | [1] | BG02 | MCF7

C[C@H]1C[C@@H](O)[C@@H]2CC(=O)OC[C@@H]21
inactive: [1] | BG02 | MCF7
